Laboratory results as given in ChEMBL document CHEMBL1201862, “PubChem BioAssay data set” (2004).
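How tested: cells in 96-well plates exposed to compound for 48 hours at five concentrations. At the GI50, growth is halved.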 Active and inactive are the calls of the source. Rule as the data show it: active = GI50 up to about 1.1 µM and inactive = higher. *1 amine or outer side, *2 acyl side, *3 side chain or, on linkers, in order; H or OH if unused. Where a SMILES comes first, the peptide text is derived from it. Bridges are numbered along the chain shown (N, C = ends). Roman numbers before positions name the chains, in order. [ ]: non-standard residue; d: D form. Actinocin(1to9) = Cc1c2oc3c(C)ccc(C(=O)[*:2])c3nc-2c(C(=O)[*:1])c(N)c1=O; NMeV = CN[CH](C(=O)O)C(C)C; Sar = CNCC(=O)O

Key:
Assay in all cases: growth of human tumour cells (NCI), 48 h
[1] = test system: U-251
[2] = test system: IGROV-1
[3] = test system: HOP-92
[4] = test system: A549
[5] = test system: NCI-H23
[6] = test system: HOP-62
[7] = test system: HCT-15
[8] = test system: UACC-62
[9] = test system: SF-295
[10] = test system: CCRF-CEM
[11] = test system: OVCAR-4
[12] = test system: RXF 393
[13] = test system: PC-3
[14] = test system: SNB-75
[15] = test system: MDA-MB-435
[16] = test system: M14
[17] = test system: SN12C
[18] = test system: OVCAR-8
[19] = test system: A498
[20] = test system: HCC 2998

`O=C(CSCC(=O)N/N=C/c1ccccc1)N/N=C\c1ccccc1` was tested, and the GI50 [1] was > 100 µM (inactive), the GI50 [2] was > 100 µM (inactive) and the GI50 [3] was > 100 µM (inactive). For the same compound, the GI50 [4] was > 100 µM (inactive), the GI50 [5] was > 100 µM (inactive) and the GI50 [6] was > 100 µM (inactive). The GI50 [7] was > 100 µM, the GI50 [8] was > 100 µM (inactive) and the GI50 [9] was > 100 µM (inactive). The GI50 [10] was > 100 µM (inactive), the GI50 [11] was > 100 µM (inactive) and the GI50 [12] was 65.8 µM (inactive). For the same compound, the GI50 [13] was > 100 µM (inactive), the GI50 [14] was > 100 µM (inactive) and the GI50 [15] was > 100 µM (inactive). The GI50 [16] was > 100 µM (inactive), the GI50 [17] was > 100 µM (inactive) and the GI50 [18] was > 100 µM (inactive).

For `Cc1[nH]c2c(c1Cc1ccccc1)C1=NC=C(O)NN1C=N2`, the GI50 [1] was 70.1 µM (inactive), the GI50 [2] was 10 µM (inactive) and the GI50 [4] was > 100 µM (inactive). For the same compound, the GI50 [5] was 53.7 µM (inactive), the GI50 [6] was > 100 µM (inactive) and the GI50 [19] was > 100 µM (inactive). The GI50 [20] was 53.8 µM (inactive), the GI50 [7] was 45.3 µM and the GI50 [8] was 65.6 µM (inactive). For the same compound, the GI50 [9] was 62.4 µM (inactive), the GI50 [10] was 20.5 µM (inactive) and the GI50 [11] was > 100 µM (inactive). The GI50 [12] was 16.6 µM (inactive), the GI50 [13] was 82.2 µM (inactive) and the GI50 [14] was 10.3 µM (inactive). For the same compound, the GI50 [15] was > 100 µM (inactive), the GI50 [16] was > 100 µM (inactive) and the GI50 [17] was > 100 µM (inactive). For the same compound, the GI50 [18] was 51.4 µM (inactive).

In the case of `O=c1c2ccccc2[nH]c(=S)n1-c1ccc(/N=N/c2cccc3cc(O)ccc23)cc1`, the GI50 [1] is reported as 54.6 µM (inactive), the GI50 [2] is reported as 64.9 µM (inactive) and the GI50 [3] is reported as > 100 µM (inactive). The GI50 [4] was > 100 µM (inactive), the GI50 [5] was > 100 µM (inactive) and the GI50 [6] was > 100 µM (inactive). The GI50 [20] was > 100 µM (inactive), the GI50 [7] was 36.3 µM and the GI50 [8] was 49.2 µM (inactive). The GI50 [9] was > 100 µM (inactive), the GI50 [10] was > 100 µM (inactive) and the GI50 [11] was > 100 µM (inactive). For the same compound, the GI50 [12] was > 100 µM (inactive), the GI50 [13] was 35.1 µM (inactive) and the GI50 [14] was > 100 µM (inactive). For the same compound, the GI50 [15] was > 100 µM (inactive), the GI50 [16] was > 100 µM (inactive) and the GI50 [17] was > 100 µM (inactive). For the same compound, the GI50 [18] was > 100 µM (inactive).

For `FC(F)(F)C1(C(F)(F)F)C2CCC3(CC(F)(F)C(F)(F)S3)C1C2` (stereo unspecified), the GI50 [1] was > 100 µM (inactive), the GI50 [2] was 87.7 µM (inactive) and the GI50 [4] was 38.9 µM (inactive). For the same compound, the GI50 [5] was 35.7 µM (inactive), the GI50 [6] was 48.4 µM (inactive) and the GI50 [19] was 57 µM (inactive). The GI50 [20] was > 100 µM (inactive), the GI50 [7] was 62.8 µM and the GI50 [8] was > 100 µM (inactive). For the same compound, the GI50 [9] was 55.1 µM (inactive), the GI50 [10] was 24.5 µM (inactive) and the GI50 [11] was 80.5 µM (inactive). For the same compound, the GI50 [12] was 31.8 µM (inactive), the GI50 [13] was 37.2 µM (inactive) and the GI50 [14] was 61.9 µM (inactive). For the same compound, the GI50 [15] was 86.7 µM (inactive), the GI50 [16] was > 100 µM (inactive) and the GI50 [17] was > 100 µM (inactive). The GI50 [18] was > 100 µM (inactive).

With `CN(NC(=O)/C(=C\c1ccco1)NC(=O)c1ccccc1)c1cn[nH]c(=O)c1Cl` the GI50 [1] was 79.4 µM (inactive), the GI50 [2] was 49.3 µM (inactive) and the GI50 [3] was > 100 µM (inactive). For the same compound, the GI50 [4] was > 100 µM (inactive), the GI50 [5] was > 100 µM (inactive) and the GI50 [6] was 64.3 µM (inactive). For the same compound, the GI50 [7] was 57.3 µM, the GI50 [8] was > 100 µM (inactive) and the GI50 [9] was 64.4 µM (inactive). The GI50 [10] was 24.6 µM (inactive), the GI50 [11] was > 100 µM (inactive) and the GI50 [12] was > 100 µM (inactive). For the same compound, the GI50 [13] was > 100 µM (inactive), the GI50 [14] was 23.4 µM (inactive) and the GI50 [15] was > 100 µM (inactive). For the same compound, the GI50 [16] was 66.2 µM (inactive), the GI50 [17] was 53.2 µM (inactive) and the GI50 [18] was 42.7 µM (inactive).

With `COc1ccccc1-c1nc(O)c2ccccc2n1` the GI50 [1] was > 100 µM (inactive), the GI50 [2] was > 100 µM (inactive) and the GI50 [4] was > 100 µM (inactive). For the same compound, the GI50 [5] was > 100 µM (inactive), the GI50 [6] was > 100 µM (inactive) and the GI50 [19] was > 100 µM (inactive). The GI50 [20] was > 100 µM (inactive), the GI50 [7] was > 100 µM and the GI50 [8] was > 100 µM (inactive). For the same compound, the GI50 [9] was > 100 µM (inactive), the GI50 [10] was > 100 µM (inactive) and the GI50 [11] was > 100 µM (inactive). The GI50 [12] was > 100 µM (inactive), the GI50 [13] was > 100 µM (inactive) and the GI50 [14] was > 100 µM (inactive). The GI50 [15] was > 100 µM (inactive), the GI50 [16] was > 100 µM (inactive) and the GI50 [17] was 56 µM (inactive). For the same compound, the GI50 [18] was > 100 µM (inactive).

With `COc1ccc(CC2NC(=O)C(NC(=O)c3c4nc5c(C(=O)NC6C(=O)NC(Cc7ccc(OC)cc7)C(=O)N7CCCC7C(=O)N(C)CC(=O)N(C)C(C(C)C)C(=O)OC6C)ccc(C)c5oc-4c(C)c(=O)c3N)C(C)OC(=O)C(C(C)C)N(C)C(=O)CN(C)C(=O)C3CCCN3C2=O)cc1` (stereo unspecified) (I: TY(Me)P[Sar][NMeV] / II: TY(Me)P[Sar][NMeV]; ester I:1-I:C, II:1-II:C; linker I:N-II:N via Actinocin(1to9); configuration not given here) the GI50 [1] was < 0.001 µM (active), the GI50 [2] was < 0.001 µM (active) and the GI50 [4] was < 0.001 µM (active). For the same compound, the GI50 [5] was 0.00147 µM (active), the GI50 [6] was 0.00681 µM (active) and the GI50 [19] was 0.00299 µM (active). For the same compound, the GI50 [20] was 0.0012 µM (active), the GI50 [7] was 0.0579 µM and the GI50 [8] was < 0.001 µM (active). For the same compound, the GI50 [9] was 0.01 µM (active), the GI50 [10] was < 0.001 µM (active) and the GI50 [11] was 0.0485 µM (active). For the same compound, the GI50 [12] was 0.01 µM (active), the GI50 [13] was < 0.001 µM (active) and the GI50 [14] was 0.00109 µM (active). The GI50 [15] was < 0.001 µM (active), the GI50 [16] was 0.00678 µM (active) and the GI50 [17] was < 0.001 µM (active). The GI50 [18] was < 0.001 µM (active).
